For one experiment, the system named is CCKB receptor. Nature of the experiment: in vitro affinity measurement, CCKB receptor. The format is binding. The procedure: (§1) This affinity is between 0.5 and 100 nM with a selectivity for the CCKA receptors over the CCKB receptors which may reach a factor of 10,000 for the compound of Example 1, for example.
The next experiment has as its system CCKA receptors. Description: in vitro affinity measurement, CCKA receptors. The experiment is classed as binding. As to the method: These compounds have formed the subject of in vitro affinity measurement studies concerning the CCKA receptors.
as §1

The subject of a further experiment is biliary emptying. Description: in vivo biliary emptying model in fasted mice. The note with it: Mus musculus, po, 1 h, administered orally one hour before the sacrifice, bile vesicle weight. The procedure:
The compounds are administered orally one hour before the sacrifice. The bile vesicle is removed and then weighed and the results, expressed in mg/kg of body weight, reveal for the compound of Example 10, for example, an ED50 of 0.3 mg/kg.

For the compound `COc1cc(OC)c(C2=NC(NC(=O)Nc3cccc(C)c3)C(=O)N(C)c3ccccc32)c(OC)c1` (stereo not shown) [Example 7, 1,3-dihydro-1-methyl-3-(3-methylphenylureido)-5-(2,4,6-trimethoxyphenyl)-1,4-benzodiazepin-2-one], the “affinity for the CCKB receptor compared with that for the CCKA receptor” value in the experiment on CCKB receptor is recorded as “identical to or greater than that obtained for the CCKA receptor”.
Regarding `COc1cc(C)cc(OC)c1C1=NC(NC(=O)Nc2cccc(C)c2)C(=O)N(C)c2ccccc21` (stereo not shown) [Example 6, 1,3-dihydro-5-(2,6-dimethoxy-4-methylphenyl)-1-methyl-3-(3-methylphenylureido)-1,4-benzodiazepin-2-one], the “affinity for the CCKB receptor compared with that for the CCKA receptor” value with CCKB receptor is “identical to or greater than that obtained for the CCKA receptor”.
In the case of `COc1cc(C)cc(OC)c1C1=NC(NC(=O)c2cc3ccccc3[nH]2)C(=O)N(C)c2ccccc21` (stereo not shown) [Example 1, N-[2,3-dihydro-5-(2,6-dimethoxy-4-methylphenyl)-1-methyl-2-oxo-1H-1,4-benzodiazepin-3-yl]-1H-2-indolecarboxamide], the “selectivity for the CCKA receptors over the CCKB receptors (factor)” value in the experiment on CCKA receptors is 10,000.
As usually defined, the ED50 is the dose that gives a 50% effect, or the effect in half of the subjects. Higher therefore signals weaker potency. Take `COc1cc(C)cc(OC)c1C1=NC(NC(=O)c2cc3ccccc3[nH]2)C(=O)N(C)c2ccccc21` (single isomer, unassigned; (+)) [Example 10, (+)-N-[2,3-dihydro-5-(2,6-dimethoxy-4-methylphenyl)-1-methyl-2-oxo-1H-1,4-benzodiazepin-3-yl]-1H-indole-2-carboxamide]: it took a dose of 0.3 mg/kg to reach the 50% effect level in the experiment with biliary emptying (ED50).
